# Measured values published in patent US20220160604A1, “EMULSION COMPOSITION COMPRISING ULTRAVIOLET WAVELENGTH CONVERSION SUBSTANCE AND ORGANIC OILY PHASE THICKENER” (Shiseido Company, Ltd., priority 2019, published 2022).
# Test system: Human dermal fibroblasts
# Experiment: Cell activity (AlamarBlue) of cells irradiated with UV through a UV wavelength conversion substance
# Type: cell-based
# Conditions: for cell activity at UV irradiation (relative fluorescence intensity): UV dose 0, 10, 25, 50, 75 or 100 mJ/cm^2, FIG. 3
# Description: 1. Human dermal fibroblasts and human skin keratinocytes purchased from Kurabo Industries Ltd. were used. A cell suspension (1 mL) stored in liquid nitrogen was thawed in a water bath (37° C.) to an extent that small ice pellets remained, and then diluted with 9 mL of warm medium.
# 10. Depending on the cell type, fibroblasts were resuspended in FGM or KGM at a concentration of 2×10^4 cells/well (500 μL), and keratinocytes were resuspended in FGM or KGM at a concentration of 4×10^4 cells/well (500 μL) and plated 24-well plates.
# 11. Cells were seeded in 24-well plates and the media were changed periodically (once every 2 days for fibroblasts and once every 2 to 3 days for keratinocytes) and the cells were grown until 60 to 70% confluence (depending on the type of experiment) was reached. (Note: Fibroblasts should reach the desired confluency in 24 hours at a cell density of 2×10^4 cells/well. When the cell density is low, for example, 1×10^4 cells/well, it takes 48 hours for fibroblasts to reach the desired confluency.)
# 12. 24 hours before irradiation, the medium was changed to a supplement-free medium (in the case of keratinocytes) or a medium containing a low concentration of serum (0.5% FCS) (in the case of fibroblasts).
# 1. A solar simulator was turned on at least 30 minutes before irradiation to warm up a lamp. The solar simulator was set to use a UG11 filter. UG11 filters are filters that allow only UVB to pass and cut light of other wavelengths.
# 3. The cells prepared in Experiment 1-2 were washed once with warm PBS.
# 4. To each well was added 0.5 mL of a warmed Martinez solution (145 mM NaCl, 5.5 mM KCl, 1.2 mM MgCl2.6H2O, 1.2 mM NaH2PO4.2H2O, 7.5 mM HEPES, 1 mM CaCl2, and 10 mM D-glucose).
# 5. As depicted in FIG. 1, cell wells were placed on a plate. Then, 0.4 ml of a solution containing the UV wavelength conversion substances (1) to (4) prepared in Experiment 1-1 was injected into each well of a 24-well plate. […]
# 4. Fluorescence measurement values at 544 nm/590 nm were read using a fluorometer (OPwave +, Ocean Photonics). […]
substance,measurement,setting,value
C-phycocyanin,cell activity at UV irradiation (relative fluorescence intensity),0.4% C-phycocyanin solution,the decrease in cell activity was suppressed
same,cell activity at UV irradiation (relative fluorescence intensity),2% C-phycocyanin solution,the cell activity was even increased
same,cell activity of cells having activity temporarily reduced by UV (relative fluorescence intensity),"pre-irradiation 400 mJ/cm^2 without substance, then UV 0-200 mJ/cm^2 through 0.4% or 2% C-phycocyanin (effect equivalent at both), FIG. 5",cell activity was recovered
